In ChEMBL document CHEMBL1129847, “2-[(substituted)phenyl]-5-[1-(2-phenylazacycloheptyl)methyl]-1H-pyrroles with high affinity and selectivity for the dopamine D3 receptor” (Bioorg Med Chem Lett, 1997):

Columns and labels:
D(3) dopamine receptor = D(3) dopamine receptor (Homo sapiens, UniProt P35462); assay: Ability to displace [125I]-sulpiride from human Dopamine receptor D3, expressed in CHO cells; format: cell-based
D(2) dopamine receptor = D(2) dopamine receptor (Homo sapiens, UniProt P14416); assay: Ability to displace [125I]sulpiride from human Dopamine receptor D2, expressed in CHO cells; format: cell-based
[1] = target: Dopamine receptors; D2 & D3 (Homo sapiens) (UniProt P14416+P35462); assay: Ratio of human dopamine D3 receptor to that of human dopamine D2 receptor was evaluated; format: protein assay

Sequence of D(3) dopamine receptor (P35462 whole entry): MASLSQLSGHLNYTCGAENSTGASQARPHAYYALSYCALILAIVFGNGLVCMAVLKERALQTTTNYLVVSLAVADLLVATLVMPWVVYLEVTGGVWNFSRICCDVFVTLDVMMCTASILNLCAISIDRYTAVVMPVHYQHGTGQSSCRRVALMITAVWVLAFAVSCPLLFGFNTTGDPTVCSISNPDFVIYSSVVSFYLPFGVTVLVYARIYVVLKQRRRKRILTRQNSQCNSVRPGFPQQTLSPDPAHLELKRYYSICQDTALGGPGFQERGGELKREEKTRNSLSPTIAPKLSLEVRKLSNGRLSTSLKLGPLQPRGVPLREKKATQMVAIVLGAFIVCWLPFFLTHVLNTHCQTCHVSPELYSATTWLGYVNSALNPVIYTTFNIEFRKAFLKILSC
Sequence of D(2) dopamine receptor (P14416 whole entry): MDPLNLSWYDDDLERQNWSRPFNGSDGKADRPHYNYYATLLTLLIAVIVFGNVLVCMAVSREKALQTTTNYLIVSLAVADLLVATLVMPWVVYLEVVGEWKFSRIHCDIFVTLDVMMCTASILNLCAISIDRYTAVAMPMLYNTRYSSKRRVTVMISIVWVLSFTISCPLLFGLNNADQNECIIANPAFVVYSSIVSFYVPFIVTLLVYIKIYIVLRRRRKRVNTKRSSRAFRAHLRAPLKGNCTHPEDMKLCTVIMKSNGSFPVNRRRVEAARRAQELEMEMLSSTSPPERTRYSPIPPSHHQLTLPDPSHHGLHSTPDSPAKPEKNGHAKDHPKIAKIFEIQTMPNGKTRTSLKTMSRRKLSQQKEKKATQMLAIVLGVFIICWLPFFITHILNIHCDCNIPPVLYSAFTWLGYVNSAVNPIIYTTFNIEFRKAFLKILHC

Structure (SMILES)	Ki (D(3) dopamine receptor) [nM]	Ki (D(2) dopamine receptor) [nM]	Selectivity [1]
COc1ccc(S(=O)(=O)N2CCc3ccccc3C2)cc1-c1ccc(CN2CCCCCC2c2ccccc2)[nH]1 (stereo unspecified)	2	200	100
COc1ccc(S(=O)(=O)N2CCOCC2)cc1-c1ccc(CN2CCCCCC2c2ccccc2)[nH]1 (stereo unspecified)	1.58	100	60
CCS(=O)(=O)c1ccc(OC)c(-c2ccc(CN3CCCCCC3c3ccccc3)[nH]2)c1 (stereo unspecified)			30
COc1ccc(S(=O)(=O)Cc2ccccc2)cc1-c1ccc(CN2CCCCCC2c2ccccc2)[nH]1 (stereo unspecified)	3.98	126	30
COc1ccc(S(=O)(=O)N2CCCc3ccccc32)cc1-c1ccc(CN2CCCCCC2c2ccccc2)[nH]1 (stereo unspecified)	6.31	1000	150
COc1ccc(S(=O)(=O)Oc2ccccc2)cc1-c1ccc(CN2CCCCCC2c2ccccc2)[nH]1 (stereo unspecified)	10	1000	100
COc1ccc(S(=O)(=O)N(C)c2ccccc2)cc1-c1ccc(CN2CCCCCC2c2ccccc2)[nH]1 (stereo unspecified)	6.31	631	100
COc1ccc(S(=O)(=O)N(C)c2ccccc2)cc1-c1ccc(CN2CCCCC[C@H]2c2ccccc2)[nH]1	15.8	1580	100
CCN(Cc1ccccc1)S(=O)(=O)c1ccc(OC)c(-c2ccc(CN3CCCCCC3c3ccccc3)[nH]2)c1 (stereo unspecified)	6.31	501	80
CCS(=O)(=O)c1ccc(OC)c(-c2ccc(CN3CCCCC[C@H]3c3ccccc3)[nH]2)c1	3.98	100	25
COc1ccc(S(=O)(=O)N(C)c2ccccc2)cc1-c1ccc(CN2CCCCC[C@@H]2c2ccccc2)[nH]1	3.98	501	125
CCS(=O)(=O)c1ccc(OC)c(-c2ccc(CN3CCCCC[C@@H]3c3ccccc3)[nH]2)c1	0.794	25.1	30
COc1ccc(S(=O)(=O)N(C)C)cc1-c1ccc(CN2CCCCCC2c2ccccc2)[nH]1 (stereo unspecified)	2	100	50
COc1ccc(S(N)(=O)=O)cc1-c1ccc(CN2CCCCCC2c2ccccc2)[nH]1 (stereo unspecified)	39.8	398	10
COc1ccc(S(=O)(=O)Nc2ccccc2)cc1-c1ccc(CN2CCCCCC2c2ccccc2)[nH]1 (stereo unspecified)	79.4	631	8
COc1ccc(S(=O)(=O)C(C)C)cc1-c1ccc(CN2CCCCCC2c2ccccc2)[nH]1 (stereo unspecified)	5.01	200	40
